The source of these data is patent US12617758B2, “Quinazoline derivative having FLT3 inhibitory activity, and use thereof” (INDUSTRY-UNIVERSITY COOPERATION FOUNDATION HANYANG …, priority 2020, dated 2026).

Holding throughout (format): biochemical
One experiment deals with RON/MST1R (Homo sapiens, UniProt Q04912). The experiment is described as follows: Kinase panel screening. To be noted: single dose of 10 μM, read-out: % inhibition rate.
Experiment [1] deals with T1, FLT3 (Homo sapiens, UniProt P36888).
T1 sequence (P36888 27-993): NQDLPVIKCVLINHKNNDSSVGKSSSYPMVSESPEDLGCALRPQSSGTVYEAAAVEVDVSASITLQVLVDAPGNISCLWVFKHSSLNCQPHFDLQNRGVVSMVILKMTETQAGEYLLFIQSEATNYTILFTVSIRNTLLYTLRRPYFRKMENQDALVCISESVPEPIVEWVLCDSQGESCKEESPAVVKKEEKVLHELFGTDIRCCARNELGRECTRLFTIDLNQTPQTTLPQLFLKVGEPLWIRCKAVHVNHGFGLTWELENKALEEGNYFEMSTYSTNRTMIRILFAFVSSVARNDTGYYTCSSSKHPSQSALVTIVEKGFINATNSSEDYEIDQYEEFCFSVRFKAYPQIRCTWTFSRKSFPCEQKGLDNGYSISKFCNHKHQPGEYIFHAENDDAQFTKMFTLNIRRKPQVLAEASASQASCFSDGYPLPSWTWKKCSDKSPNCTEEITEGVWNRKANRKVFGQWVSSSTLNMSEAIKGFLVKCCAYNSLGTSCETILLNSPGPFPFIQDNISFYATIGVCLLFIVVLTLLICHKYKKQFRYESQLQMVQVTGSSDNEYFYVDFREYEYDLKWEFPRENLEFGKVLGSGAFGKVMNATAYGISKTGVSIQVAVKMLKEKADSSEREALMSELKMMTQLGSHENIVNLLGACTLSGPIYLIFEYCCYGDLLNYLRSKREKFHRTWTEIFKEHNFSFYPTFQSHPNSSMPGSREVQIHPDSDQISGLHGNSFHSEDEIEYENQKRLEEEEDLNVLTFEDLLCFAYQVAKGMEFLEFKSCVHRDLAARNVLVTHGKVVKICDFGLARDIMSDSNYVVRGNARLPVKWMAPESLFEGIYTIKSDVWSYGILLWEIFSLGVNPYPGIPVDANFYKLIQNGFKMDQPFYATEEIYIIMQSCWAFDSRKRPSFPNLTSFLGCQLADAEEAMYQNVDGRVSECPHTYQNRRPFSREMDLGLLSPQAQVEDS
Put plainly: FLT3 enzyme activity (IC50). From the text:
Experimental Example 1. Measurement of FLT3 and FLT Enzyme Activity
Changes in FLT3 and FLT enzyme activities by treatment with the quinazoline derivatives of the following Table 1 according to the present invention were confirmed by IC50.

The target in experiment [2] is T1, FLT3. The experiment is described as follows: Kinase panel screening. As to conditions: single dose of 10 μM.
Another experiment addresses FLT3-ITD (Homo sapiens, UniProt P36888). Put plainly: Kinase panel screening. To be noted: single dose of 10 μM.
The target in a further experiment is c-MET (Homo sapiens, UniProt P08581). The experiment is described as follows: Kinase panel screening. As to conditions: single dose of 10 μM, read-out: % inhibition rate.
The target of the next experiment is AXL (Homo sapiens, UniProt P30530). Put plainly: Kinase panel screening. As to conditions: single dose of 10 μM, read-out: % inhibition rate.
Sequence of AXL (P30530 26-894, species assumed): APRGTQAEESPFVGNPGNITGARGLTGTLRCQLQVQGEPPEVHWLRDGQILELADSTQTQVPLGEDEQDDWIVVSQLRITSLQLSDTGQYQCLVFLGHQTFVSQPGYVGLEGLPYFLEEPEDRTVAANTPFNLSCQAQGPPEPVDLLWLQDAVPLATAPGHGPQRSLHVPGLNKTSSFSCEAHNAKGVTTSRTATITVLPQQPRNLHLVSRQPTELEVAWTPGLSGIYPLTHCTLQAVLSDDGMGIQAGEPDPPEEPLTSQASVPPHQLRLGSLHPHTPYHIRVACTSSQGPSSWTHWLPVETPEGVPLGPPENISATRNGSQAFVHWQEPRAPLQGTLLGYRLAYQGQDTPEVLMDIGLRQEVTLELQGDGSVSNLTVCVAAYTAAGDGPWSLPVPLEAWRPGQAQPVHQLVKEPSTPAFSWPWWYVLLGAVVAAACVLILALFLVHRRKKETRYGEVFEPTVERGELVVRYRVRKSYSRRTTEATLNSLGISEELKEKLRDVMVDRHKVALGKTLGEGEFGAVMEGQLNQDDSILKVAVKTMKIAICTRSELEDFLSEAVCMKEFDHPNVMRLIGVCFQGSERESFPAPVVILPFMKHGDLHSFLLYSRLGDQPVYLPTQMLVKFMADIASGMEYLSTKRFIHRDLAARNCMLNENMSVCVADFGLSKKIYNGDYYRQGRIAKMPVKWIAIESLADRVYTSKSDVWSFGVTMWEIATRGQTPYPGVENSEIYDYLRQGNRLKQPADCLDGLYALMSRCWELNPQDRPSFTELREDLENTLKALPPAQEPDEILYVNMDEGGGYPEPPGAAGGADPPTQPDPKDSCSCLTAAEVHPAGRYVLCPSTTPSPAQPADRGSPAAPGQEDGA
The target of another experiment is RIPK3 (Homo sapiens, UniProt Q9Y572). Put plainly: Kinase panel screening. To be noted: single dose of 10 μM, read-out: % inhibition rate. On the procedure: Next, kinase panel screening for Compound 7d was investigated for 36 different kinases at a single dose of 10 μM (FIG. 1 and Table 3).
In a further experiment the target is BRAF (V599E) (Homo sapiens, UniProt P15056, V600E). The experiment is described as follows: Kinase panel screening. As to conditions: single dose of 10 μM, read-out: % inhibition rate.
Sequence of BRAF (V599E) (P15056 416-766 V600E limits assumed, species assumed): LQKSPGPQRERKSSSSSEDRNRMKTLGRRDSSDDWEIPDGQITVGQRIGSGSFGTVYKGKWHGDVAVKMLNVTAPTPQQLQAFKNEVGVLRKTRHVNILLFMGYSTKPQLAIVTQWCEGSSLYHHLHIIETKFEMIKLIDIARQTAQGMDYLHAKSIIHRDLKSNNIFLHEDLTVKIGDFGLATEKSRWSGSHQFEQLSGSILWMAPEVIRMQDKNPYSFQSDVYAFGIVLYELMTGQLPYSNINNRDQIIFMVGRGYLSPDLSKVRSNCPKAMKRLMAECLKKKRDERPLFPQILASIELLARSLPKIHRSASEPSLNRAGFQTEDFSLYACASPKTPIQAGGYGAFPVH
The target of a further experiment is ERK1 (Homo sapiens, UniProt P27361). The experiment is described as follows: Kinase panel screening. To be noted: single dose of 10 μM, read-out: % inhibition rate.
Sequence of ERK1 (P27361 whole entry, species assumed): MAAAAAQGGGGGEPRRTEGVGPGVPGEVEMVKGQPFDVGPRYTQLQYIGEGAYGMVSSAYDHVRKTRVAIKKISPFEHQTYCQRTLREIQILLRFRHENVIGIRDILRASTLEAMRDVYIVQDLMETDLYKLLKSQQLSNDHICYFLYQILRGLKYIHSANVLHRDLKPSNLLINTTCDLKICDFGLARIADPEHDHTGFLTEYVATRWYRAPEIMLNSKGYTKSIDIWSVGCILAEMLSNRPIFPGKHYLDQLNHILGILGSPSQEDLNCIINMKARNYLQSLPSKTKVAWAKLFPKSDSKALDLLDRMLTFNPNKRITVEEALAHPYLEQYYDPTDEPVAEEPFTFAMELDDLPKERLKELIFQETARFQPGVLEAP
Another experiment concerns the target GSK3b (Homo sapiens, UniProt P49841). The experiment is described as follows: Kinase panel screening. As to conditions: single dose of 10 μM, read-out: % inhibition rate.
The next experiment concerns the target EGFR (Homo sapiens, UniProt P00533). The experiment is described as follows: Kinase panel screening. As to conditions: single dose of 10 μM, read-out: % inhibition rate.
In a further experiment the target is KDR/VEGFR2 (Homo sapiens, UniProt P35968). Put plainly: Kinase panel screening. To be noted: single dose of 10 μM, read-out: % inhibition rate.
Sequence of KDR/VEGFR2 (P35968 20-1356): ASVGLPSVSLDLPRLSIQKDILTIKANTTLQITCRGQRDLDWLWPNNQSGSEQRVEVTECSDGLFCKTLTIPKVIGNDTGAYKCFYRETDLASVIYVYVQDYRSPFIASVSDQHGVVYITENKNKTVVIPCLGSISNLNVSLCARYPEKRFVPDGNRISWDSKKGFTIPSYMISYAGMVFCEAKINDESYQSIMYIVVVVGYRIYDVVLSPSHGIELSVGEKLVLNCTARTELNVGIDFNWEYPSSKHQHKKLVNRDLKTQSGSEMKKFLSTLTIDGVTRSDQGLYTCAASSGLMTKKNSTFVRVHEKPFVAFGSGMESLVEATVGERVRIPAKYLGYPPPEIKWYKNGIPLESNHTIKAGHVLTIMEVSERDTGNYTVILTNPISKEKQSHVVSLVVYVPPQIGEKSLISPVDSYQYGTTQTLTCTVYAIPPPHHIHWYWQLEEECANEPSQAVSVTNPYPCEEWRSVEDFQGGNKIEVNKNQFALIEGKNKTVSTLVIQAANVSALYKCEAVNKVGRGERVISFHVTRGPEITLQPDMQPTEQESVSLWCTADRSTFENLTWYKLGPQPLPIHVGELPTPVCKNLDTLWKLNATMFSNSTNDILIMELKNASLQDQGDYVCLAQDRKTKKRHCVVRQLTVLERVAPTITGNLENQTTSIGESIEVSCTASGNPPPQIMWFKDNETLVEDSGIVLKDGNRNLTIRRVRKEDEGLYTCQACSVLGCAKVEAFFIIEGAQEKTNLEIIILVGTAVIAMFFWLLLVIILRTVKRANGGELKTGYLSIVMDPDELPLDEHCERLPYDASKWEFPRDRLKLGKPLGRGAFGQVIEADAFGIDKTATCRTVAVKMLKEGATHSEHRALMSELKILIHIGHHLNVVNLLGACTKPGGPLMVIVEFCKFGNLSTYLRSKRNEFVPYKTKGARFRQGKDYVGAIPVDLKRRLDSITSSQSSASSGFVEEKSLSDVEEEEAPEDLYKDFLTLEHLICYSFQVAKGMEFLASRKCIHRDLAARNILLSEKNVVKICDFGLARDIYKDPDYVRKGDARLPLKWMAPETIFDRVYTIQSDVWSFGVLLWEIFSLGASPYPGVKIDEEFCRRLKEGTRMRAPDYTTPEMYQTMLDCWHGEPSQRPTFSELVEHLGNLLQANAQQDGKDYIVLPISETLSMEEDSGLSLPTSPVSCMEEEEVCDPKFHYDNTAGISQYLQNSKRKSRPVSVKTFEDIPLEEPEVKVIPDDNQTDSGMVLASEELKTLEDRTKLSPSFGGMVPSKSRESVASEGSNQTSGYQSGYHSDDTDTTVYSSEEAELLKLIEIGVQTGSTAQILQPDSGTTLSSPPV
Another experiment has as its target LCK (Homo sapiens, UniProt P06239). Put plainly: Kinase panel screening. To be noted: single dose of 10 μM, read-out: % inhibition rate.
For another experiment, the target named is ROS/ROS1 (Homo sapiens, UniProt P08922). Put plainly: Kinase panel screening. To be noted: single dose of 10 μM, read-out: % inhibition rate.
The target in another experiment is CDK4/cyclin D1 (Homo sapiens, UniProt P11802). Put plainly: Kinase panel screening. As to conditions: single dose of 10 μM, read-out: % inhibition rate.
The target of the next experiment is SYK (Homo sapiens, UniProt P43405). The experiment is described as follows: Kinase panel screening. As to conditions: single dose of 10 μM, read-out: % inhibition rate.
The next experiment has as its target AKT1 (Homo sapiens, UniProt P31749). The experiment is described as follows: Kinase panel screening. To be noted: single dose of 10 μM, read-out: % inhibition rate.

Read-outs that look alike come from different tables or passages of the source. Bounds are passed on as bounds.

In general, inhibition refers to the share of the control response that was lost under treatment. The IC50 is the point on the concentration scale where inhibition reaches its midpoint.

Sequence of LCK (P06239 whole entry, species assumed): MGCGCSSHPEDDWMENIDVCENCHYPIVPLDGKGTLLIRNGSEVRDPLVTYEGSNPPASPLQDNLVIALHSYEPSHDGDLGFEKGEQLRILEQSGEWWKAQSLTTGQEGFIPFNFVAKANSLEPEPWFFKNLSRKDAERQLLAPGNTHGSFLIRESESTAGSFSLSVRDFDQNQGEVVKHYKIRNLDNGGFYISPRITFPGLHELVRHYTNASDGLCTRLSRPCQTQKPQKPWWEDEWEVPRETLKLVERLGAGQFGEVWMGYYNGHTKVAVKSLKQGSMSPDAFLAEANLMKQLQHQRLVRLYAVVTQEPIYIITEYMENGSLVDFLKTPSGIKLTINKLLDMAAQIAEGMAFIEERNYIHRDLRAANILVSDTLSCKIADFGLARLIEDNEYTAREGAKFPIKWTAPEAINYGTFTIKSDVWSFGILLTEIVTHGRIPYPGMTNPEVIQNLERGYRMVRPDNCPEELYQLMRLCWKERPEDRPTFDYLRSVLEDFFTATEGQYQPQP
Sequence of EGFR (P00533 25-1210, species assumed): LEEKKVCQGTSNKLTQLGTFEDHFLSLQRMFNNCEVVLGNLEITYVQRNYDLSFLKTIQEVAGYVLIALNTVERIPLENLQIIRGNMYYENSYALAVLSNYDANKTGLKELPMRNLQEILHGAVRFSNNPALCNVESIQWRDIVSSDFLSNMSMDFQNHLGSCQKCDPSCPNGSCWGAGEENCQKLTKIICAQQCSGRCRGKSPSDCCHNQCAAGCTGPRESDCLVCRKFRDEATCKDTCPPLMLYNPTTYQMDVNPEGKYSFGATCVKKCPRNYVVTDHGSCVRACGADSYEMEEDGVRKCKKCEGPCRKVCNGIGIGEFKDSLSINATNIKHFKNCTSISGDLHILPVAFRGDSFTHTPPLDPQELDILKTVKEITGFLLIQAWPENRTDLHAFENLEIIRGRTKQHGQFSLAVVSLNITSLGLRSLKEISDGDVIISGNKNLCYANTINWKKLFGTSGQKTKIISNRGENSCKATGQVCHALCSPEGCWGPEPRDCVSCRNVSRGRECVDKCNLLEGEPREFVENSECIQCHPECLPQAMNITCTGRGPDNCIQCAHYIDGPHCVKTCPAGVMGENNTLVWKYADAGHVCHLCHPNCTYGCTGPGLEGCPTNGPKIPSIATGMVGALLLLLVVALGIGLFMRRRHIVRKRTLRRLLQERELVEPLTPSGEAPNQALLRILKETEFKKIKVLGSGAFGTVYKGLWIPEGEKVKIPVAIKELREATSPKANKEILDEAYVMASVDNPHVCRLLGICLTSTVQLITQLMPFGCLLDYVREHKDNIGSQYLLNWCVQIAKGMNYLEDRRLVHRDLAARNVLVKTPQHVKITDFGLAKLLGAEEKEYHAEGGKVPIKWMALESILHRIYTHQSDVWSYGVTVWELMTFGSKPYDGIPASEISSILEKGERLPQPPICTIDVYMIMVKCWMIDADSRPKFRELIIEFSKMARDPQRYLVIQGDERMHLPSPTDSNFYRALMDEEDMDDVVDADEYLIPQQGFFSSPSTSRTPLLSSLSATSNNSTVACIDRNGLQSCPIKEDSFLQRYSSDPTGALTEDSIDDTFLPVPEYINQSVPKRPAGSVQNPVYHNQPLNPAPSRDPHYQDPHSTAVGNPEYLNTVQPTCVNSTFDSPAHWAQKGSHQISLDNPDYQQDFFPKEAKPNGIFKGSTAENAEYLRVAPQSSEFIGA
Sequence of GSK3b (P49841 whole entry, species assumed): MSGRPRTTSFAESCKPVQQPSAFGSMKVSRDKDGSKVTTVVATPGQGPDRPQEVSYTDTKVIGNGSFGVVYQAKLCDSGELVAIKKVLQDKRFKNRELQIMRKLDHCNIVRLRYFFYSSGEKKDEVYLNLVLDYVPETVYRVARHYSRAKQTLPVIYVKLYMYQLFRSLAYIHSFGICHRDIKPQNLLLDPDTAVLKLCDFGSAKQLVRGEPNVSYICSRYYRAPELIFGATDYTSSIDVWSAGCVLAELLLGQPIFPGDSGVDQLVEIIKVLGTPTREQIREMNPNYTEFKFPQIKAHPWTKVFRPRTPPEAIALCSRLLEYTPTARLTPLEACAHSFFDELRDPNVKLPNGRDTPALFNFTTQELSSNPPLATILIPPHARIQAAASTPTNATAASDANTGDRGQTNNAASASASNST

Regarding `Cc1oncc1C(=O)Nc1ccc2cnc(-c3cc(N4CCN(C)CC4)cc(C(F)(F)F)c3)nc2c1` [Compound 7d, 5-methyl-N-(2-(3-(4-methylpiperazin-1-yl)-5-(trifluoromethyl)phenyl)quinazolin-7-yl)isoxazole-4-carboxamide], the inhibition at 10 µM on RON/MST1R was 13.5%; on c-MET it was 13.2%; at AXL, 21.2%; at RIPK3, 12.8%; at BRAF (V599E), 5.19%; at ERK1, 15%. Further, the inhibition at 10 µM is 8.06% on GSK3b; 0% on EGFR; 16.8% on KDR/VEGFR2; 19.7% on LCK; 14.4% on ROS/ROS1; 3.01% on CDK4/cyclin D1. Moreover, the values for the inhibition at 10 µM on SYK and on AKT1 were 22.4% and 5.48%, respectively. In addition, the IC50 at FLT3 [1] (read-out: FLT3 IC50) was less than 3000 nM; on FLT3 [1] (read-out: IC50 against FLT3) it was 106 nM. The “% inhibition rate” value was found to be 96.6% at FLT3 [2] and 95.2% at FLT3-ITD.
